These results are taken from ChEMBL document CHEMBL4385643, “Design of a brain-penetrant CDK4/6 inhibitor for glioblastoma” (Bioorg Med Chem Lett, 2019).

The target in data set [1] is Dual specificity mitogen-activated protein kinase kinase 3 (Homo sapiens) (UniProt P46734). In words: Inhibition of recombinant full length human GST-tagged MEK3 expressed in baculovirus expression system at 0.1 uM using serine/threonine-3 peptide as substrate incubated for 60 mins by Z'-LYTE assay relative to control.
The target in data set [2] is CDK4/Cyclin D3 (Homo sapiens) (UniProt P11802+P30281). In words: Inhibition of recombinant full length human GST-tagged CDK4/Cyclin D3 expressed in insect expression system at 0.1 uM using Rb peptide as substrate incubated for 60 mins by Adapta assay relative to control.
For the next data set, the target named is CDK1/Cyclin A (Homo sapiens, UniProt P06493).
Data set [3] concerns the target Glycogen synthase kinase-3 alpha (Homo sapiens) (UniProt P49840). Briefly: Inhibition of recombinant full length human GST-tagged GSK3alpha expressed in baculovirus expression system at 0.1 uM using serine/threonine-9 peptide as substrate incubated for 60 mins by Z'-LYTE assay relative to control.
Data set [4] can be described thus: in vivo. To be noted: CD-1, mouse, po, 25 mg/kg.
Description: Half life in CD-1 mouse at 25 mg/kg, po measured upto 6 hours by LC-MS/MS analysis
The target of data set [5] is Glycogen synthase kinase-3 beta (Homo sapiens) (UniProt P49841). Briefly: Inhibition of recombinant full length human His-tagged GSK3beta expressed in baculovirus expression system at 0.1 uM using serine/threonine-9 peptide as substrate incubated for 60 mins by Z'-LYTE assay relative to control.
The target of data set [6] is Dual specificity protein kinase CLK1 (Homo sapiens) (UniProt P49759). Briefly: Inhibition of recombinant human GST-tagged CLK1 catalytic domain (129 to 484 residues) expressed in Escherichia coli expression system at 0.1 uM using serine/threonine-9 peptide as substrate incubated for 60 mins by Z'-LYTE assay relative to control.
A short description of data set [7]: in vivo. The following applies: CD-1, mouse, brain/plasma, po, 25 mg/kg.
Description: Plasma to brain permeability coefficient, Kp of the compound in CD-1 mouse at 25 mg/kg, po measured at 6 hrs post dose by LC/MS/MS analysis
A short description of data set [8]: in vivo. To be noted: CD-1, mouse, iv, 1 mg/kg.
Description: Volume of distribution at steady state in CD-1 mouse at 1.0 mg/kg, iv measured upto 6 hours by LC-MS/MS analysis
The nature of data set [9]: Plasma to brain permeability coefficient, Kp of the compound in CD-1 mouse at 1.0 mg/kg, iv measured at 6 hrs post dose by LC/MS/MS analysis. It is filed as ADME, organism-based.

Glycogen synthase kinase-3 beta (Homo sapiens), sequence (P49841 whole entry, looked up, the tested form may be a part): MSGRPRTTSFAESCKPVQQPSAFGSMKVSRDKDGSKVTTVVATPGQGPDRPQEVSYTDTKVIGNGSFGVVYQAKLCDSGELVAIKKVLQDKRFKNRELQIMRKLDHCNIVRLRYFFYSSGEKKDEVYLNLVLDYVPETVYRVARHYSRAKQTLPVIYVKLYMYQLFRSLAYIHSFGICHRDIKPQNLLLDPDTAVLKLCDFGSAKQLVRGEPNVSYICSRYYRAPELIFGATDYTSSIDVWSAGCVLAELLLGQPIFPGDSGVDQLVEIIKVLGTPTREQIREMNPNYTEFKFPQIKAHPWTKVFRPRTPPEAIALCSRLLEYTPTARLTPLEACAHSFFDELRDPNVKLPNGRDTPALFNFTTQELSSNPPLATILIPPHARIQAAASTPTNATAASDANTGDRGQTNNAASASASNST
Dual specificity mitogen-activated protein kinase kinase 3 (Homo sapiens), sequence (P46734 whole entry): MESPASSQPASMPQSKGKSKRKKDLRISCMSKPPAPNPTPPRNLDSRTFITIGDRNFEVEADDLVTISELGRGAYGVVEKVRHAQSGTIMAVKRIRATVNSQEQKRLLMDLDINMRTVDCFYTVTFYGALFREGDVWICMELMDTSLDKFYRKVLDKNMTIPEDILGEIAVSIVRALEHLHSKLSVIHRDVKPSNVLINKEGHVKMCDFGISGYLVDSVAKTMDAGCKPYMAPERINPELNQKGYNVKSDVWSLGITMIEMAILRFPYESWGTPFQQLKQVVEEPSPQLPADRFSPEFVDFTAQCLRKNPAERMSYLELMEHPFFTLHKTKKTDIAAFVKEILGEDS
Dual specificity protein kinase CLK1 (Homo sapiens), sequence (P49759 whole entry, looked up, the tested form may be a part): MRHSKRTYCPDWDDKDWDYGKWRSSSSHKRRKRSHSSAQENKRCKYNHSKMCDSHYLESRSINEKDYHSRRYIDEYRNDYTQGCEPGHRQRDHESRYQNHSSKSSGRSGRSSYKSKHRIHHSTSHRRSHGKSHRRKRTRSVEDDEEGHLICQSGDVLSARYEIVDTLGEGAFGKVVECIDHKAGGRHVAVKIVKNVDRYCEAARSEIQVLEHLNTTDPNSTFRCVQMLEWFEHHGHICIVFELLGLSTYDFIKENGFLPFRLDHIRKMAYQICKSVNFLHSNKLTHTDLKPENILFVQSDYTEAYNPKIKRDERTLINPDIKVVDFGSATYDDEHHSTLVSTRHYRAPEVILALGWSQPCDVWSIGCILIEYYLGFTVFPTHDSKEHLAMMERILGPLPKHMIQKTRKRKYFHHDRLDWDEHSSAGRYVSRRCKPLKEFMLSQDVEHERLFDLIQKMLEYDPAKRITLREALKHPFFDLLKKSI
CDK1/Cyclin A, sequence (P06493 whole entry): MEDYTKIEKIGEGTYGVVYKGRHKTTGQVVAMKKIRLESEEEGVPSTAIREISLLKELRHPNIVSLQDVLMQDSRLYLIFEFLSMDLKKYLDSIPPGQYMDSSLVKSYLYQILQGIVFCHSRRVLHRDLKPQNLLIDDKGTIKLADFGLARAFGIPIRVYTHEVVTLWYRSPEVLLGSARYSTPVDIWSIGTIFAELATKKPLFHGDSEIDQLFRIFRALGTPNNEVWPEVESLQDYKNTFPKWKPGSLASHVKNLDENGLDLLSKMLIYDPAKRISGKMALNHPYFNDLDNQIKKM
CDK1/Cyclin A, sequence (P20248 whole entry, further chain): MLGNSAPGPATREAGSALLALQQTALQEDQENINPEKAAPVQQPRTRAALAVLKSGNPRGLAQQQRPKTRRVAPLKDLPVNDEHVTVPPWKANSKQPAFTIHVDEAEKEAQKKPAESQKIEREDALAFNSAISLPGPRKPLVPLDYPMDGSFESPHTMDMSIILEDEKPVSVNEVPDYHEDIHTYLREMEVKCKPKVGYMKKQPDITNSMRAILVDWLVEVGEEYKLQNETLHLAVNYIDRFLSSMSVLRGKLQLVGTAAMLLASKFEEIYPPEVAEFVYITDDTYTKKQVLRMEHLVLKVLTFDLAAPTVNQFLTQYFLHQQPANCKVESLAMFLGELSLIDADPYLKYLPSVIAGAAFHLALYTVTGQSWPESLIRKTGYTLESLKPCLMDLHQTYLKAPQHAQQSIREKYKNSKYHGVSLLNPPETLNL
Glycogen synthase kinase-3 alpha (Homo sapiens), sequence (P49840 2-483 limits assumed): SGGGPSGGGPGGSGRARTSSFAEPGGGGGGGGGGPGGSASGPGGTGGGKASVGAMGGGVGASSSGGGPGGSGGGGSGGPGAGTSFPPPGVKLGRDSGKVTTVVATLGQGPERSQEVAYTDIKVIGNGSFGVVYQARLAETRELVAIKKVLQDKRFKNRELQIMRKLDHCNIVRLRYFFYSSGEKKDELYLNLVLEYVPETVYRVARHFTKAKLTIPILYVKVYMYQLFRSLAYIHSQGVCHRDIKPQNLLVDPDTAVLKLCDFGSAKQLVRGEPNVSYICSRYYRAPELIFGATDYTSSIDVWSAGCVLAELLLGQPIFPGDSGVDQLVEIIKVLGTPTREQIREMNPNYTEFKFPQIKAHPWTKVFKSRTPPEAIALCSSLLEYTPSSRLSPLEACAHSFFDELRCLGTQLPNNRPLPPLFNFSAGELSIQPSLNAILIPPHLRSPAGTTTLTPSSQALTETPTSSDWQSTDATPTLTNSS
Description for CDK1/Cyclin A: Inhibition of human recombinant full length GST-tagged CDK1/Cyclin A2 expressed in sf9 insect cells assessed as inhibition constant using Ulight-4E-BP1 as substrate preincubated for 30 mins followed by substrate addition and incubated for 90 mins by TR-FRET assay

As usually defined, the inhibition is the percentage by which the read-out fell short of the control. For `CCN1CCN(Cc2ccc(Nc3ncc(F)c(-c4cc(F)c5nc(C)n(C(C)C)c5c4)n3)nc2)CC1` [ABEMACICLIB], the inhibition in data set [1] was 33.2%.

As a reminder, the Ki is the dissociation constant of the complex between target and ligand, obtained from inhibition or displacement. A low value points to tighter binding. In general, half-life refers to the time needed for the level to fall by half in the phase considered. A higher half-life goes with slow loss. By Kp is commonly meant the ratio of the level in a tissue or fluid to that in plasma or blood. The term Vd denotes the apparent volume that relates the amount in the body to the concentration in plasma or blood. Low values mean confinement near the circulation, high ones extensive tissue distribution. For the molecule `CCN1CC2(C1)CN(c1ccc(Nc3ncc(F)c(-c4cnn5c4[C@H](C)CCCC5)n3)nc1)C2`, the inhibition in [2] turned out to be 88.5%; in [3] it was 33%; in data set [5], 30.5%; in data set [6], 77.5%. This molecule showed a Ki on CDK1/Cyclin A of 110 nM. The same molecule showed a half-life at 6 h in “in vivo [4]” of 2.5 h. In addition, the Kp at 6 h is 1.6 in the data set “in vivo [7]” and 2.3 in data set [9]. The molecule further had a volume of distribution (Vd) at 6 h in “in vivo [8]” of 6.2 L/kg.
